Consider two molecules from patent publication US20100286023A1, “Compositions and Methods for Increasing Muscle Mass, Strength, and Functional Performance in the Elderly” (priority 2008, published 2010).

One experiment concerns anesthetized rabbits. Nature of the experiment: Amino acid infusion with arginine raised to about 50% of the mixture (Example 6). It is filed as in vivo, rabbit. The text has this:
Muscle protein synthesis was stimulated in anesthetized rabbits when arginine was increased to about 50% of the total mixture of amino acids infused. […] The mechanism by which arginine activates the initiation of protein synthesis is the same as leucine. Further, arginine is relatively deficient in the elderly. Thus, addition of arginine may work in concert with leucine to activate protein synthesis in elderly.

Another experiment relates to muscle protein synthesis. Particulars: tightly controlled laboratory setting, glucose infused to maintain euglycemia; cited from earlier work.

On to `N=C(N)NCCC[C@H](N)C(=O)O` [arginine], for which, in the experiment on anesthetized rabbits (arginine about 50% of the total mixture of amino acids infused), the Muscle protein synthesis result is “stimulated”. Besides, the Muscle protein breakdown result with anesthetized rabbits (arginine added to the amino acid solution) is reported as “unchanged”. Further, the Net muscle catabolism entry in the experiment on anesthetized rabbits (post-absorptive rabbits) is “virtually completely reversed”.

As to “insulin: hormone, pharmacological treatment compared with EAAs”, the “Effect on muscle protein synthesis compared with EAAs” value in the experiment on muscle protein synthesis is recorded as “in the same range of effectiveness as EAAs”.
